Read-outs that look alike come from different tables or passages of the source.
Assays:
[1] = Model-derived miglustat/ATB200 steady state exposure (AUC) ratio; design: species or system mouse; conditions: 10 mg/kg miglustat co-administered with 20 mg/kg ATB200
Source text: Pharmacokinetic models (Example 8) are used to predict exposure to acid α-glucosidase and miglustat, time-matched to the values for tissue lysosomal glycogen levels in Table 5.

in vivo = conditions: both, Cambodian origin, cynomolgus monkey, in vivo
Procedure: Animals were acclimated to the study room for 18 (females) to 19 (males) days. On the final day of acclimation, animals weighed between 2.243 kg and 5.413 kg and were 2 to 3 years of age.
ATB200 is formulated in 25 mM sodium phosphate buffer, pH 6 containing 2.92 mg/mL sodium chloride, 20 mg/mL mannitol, and 0.5 mg/mL polysorbate 80 (formulation buffer). Test article (ATB200 or miglustat) and control article/vehicle (formulation buffer) were administered once every other week for 13 weeks, starting on Day 1 and ending on Day 85. ATB200 and the control article/vehicle were administered by 2 hour (±10 minute) intravenous (IV) infusion at 0 mg/kg (Group 1, control article), 50 mg/kg (Group 2), or 100 mg/kg (Groups 3 and 5). Miglustat was administered nasogastrically in sterile water for injection, USP, at 25 mg/kg (Group 2) or 175 mg/kg (Groups 3 and 4), 30 minutes (±2 minutes) prior to the start of the infusion for ATB200, when given in combination. The dosing volume across all groups was 10 mL/kg.
Parameters assessed during the in-life phase of the study included body weights, food consumption, clinical observations, detailed clinical observations, physical examinations, electrocardiography, ophthalmic assessments, clinical pathology (hematology, coagulation, serum chemistry), anti-drug antibody (ADA) assessment, neutralizing ADA assessment, urinalysis, and plasma toxicokinetics (TK) for miglustat and ATB200 activity and total protein. Terminal necropsy of animals was performed on Day 99 (14 days after the last dose administration). At necropsy, gross observations and organ weights were recorded, and tissues were collected for microscopic examination.

Miglustat toxicokinetics = type: in vivo, cynomolgus monkey; conditions: for AUC(0-t) / Cmax / half-life / Tmax / Vd/F: cynomolgus monkey, plasma; for Vd/F: read-out: Vz/F
Procedure: Analysis of miglustat concentration was carried out using a LC-MS/MS method analogous to that described for analysis of duvoglustat concentration by Richie Khanna, Allan C. Powe Jr., Yi Lun, Rebecca Soska, Jessie Feng, Rohini Dhulipala, Michelle Frascella, Anadina Garcia, Lee J. Pellegrino, Su Xu, Nastry Brignol, Matthew J. Toth, Hung V. Do, David J. Lockhart, Brandon A. Wustman, Kenneth J. Valenzano. […] Miglustat TK parameters were estimated by the log-linear trapezoidal rule.

acid α-glucosidase = acid α-glucosidase (Homo sapiens, UniProt P10253); assay: Inhibition of acid α-glucosidase activity; type: biochemical
Procedure: Pharmacokinetic models (Example 8) were used to predict the length of time that the plasma or tissue concentrations of duvoglustat (a surrogate of miglustat) would remain above the IC50 (the concentration giving 50% of maximum inhibition of acid α-glucosidase activity) of miglustat in plasma and lysosome. Inhibition of acid α-glucosidase activity is determined by methods described previously (Flanagan J J, Rossi B, Tang K, Wu X, Mascioli K, et al. (2009) “The pharmacological chaperone 1-deoxynojirimycin increases the activity and lysosomal trafficking of multiple mutant forms of acid alpha-glucosidase.” Hum Mutat 30: 1683-1692).

[2] = Cambodian origin, po, 175 mg/kg, Day 85, 100 mg/kg ATB200 + 175 mg/kg miglustat
[3] = Cambodian origin, po, 175 mg/kg, Day 85, 175 mg/kg miglustat monotherapy
[4] = po, 25 mg/kg, Day 1, 50 mg/kg ATB200 + 25 mg/kg miglustat
[5] = po, 25 mg/kg, Day 85, 50 mg/kg ATB200 + 25 mg/kg miglustat
[6] = po, 175 mg/kg, Day 1, 100 mg/kg ATB200 + 175 mg/kg miglustat
[7] = po, 175 mg/kg, Day 1, 175 mg/kg miglustat monotherapy
[8] = po, 175 mg/kg, Day 85, 100 mg/kg ATB200 + 175 mg/kg miglustat
[9] = po, 175 mg/kg, Day 85, 175 mg/kg miglustat monotherapy

CCCCN1C[C@H](O)[C@@H](O)[C@H](O)[C@H]1CO [miglustat, (2R,3R,4R,5S)-1-butyl-2-(hydroxymethyl)piperidine-3,4,5-triol]
miglustat/ATB200 AUC ratio [1]: 0.01159
NOAEL at 13 weeks (in vivo): 175 mg/kg
AUC(0-t) (Miglustat toxicokinetics; [2]): 216 µg·h/mL
Cmax (Miglustat toxicokinetics; [2]): 22000 ng/mL
AUC(0-t) (Miglustat toxicokinetics; [3]): 204 µg·h/mL
Cmax (Miglustat toxicokinetics; [3]): 14700 ng/mL
CLT/F (Miglustat toxicokinetics; Day 1, 50 mg/kg ATB200 + 25 mg/kg miglustat): 1.92 L/h
CLT/F (Miglustat toxicokinetics; Day 1, 100 mg/kg ATB200 + 175 mg/kg miglustat): 3.22 L/h
CLT/F (Miglustat toxicokinetics; Day 1, 175 mg/kg miglustat monotherapy): 3.67 L/h
CLT/F (Miglustat toxicokinetics; Day 85, 50 mg/kg ATB200 + 25 mg/kg miglustat): 1.99 L/h
CLT/F (Miglustat toxicokinetics; Day 85, 100 mg/kg ATB200 + 175 mg/kg miglustat): 3.62 L/h
CLT/F (Miglustat toxicokinetics; Day 85, 175 mg/kg miglustat monotherapy): 3.49 L/h
half-life (Miglustat toxicokinetics; both sexes, oral, males and females combined, Days 1 and 85, across groups, read-out: mean t1/2): 6.66 to 8.23 h
Tmax (Miglustat toxicokinetics; oral, postdose, across groups and days): 2 to 4 h
AUC(0-t) (Miglustat toxicokinetics; [4]): 47.3 µg·h/mL
Cmax (Miglustat toxicokinetics; [4]): 7430 ng/mL
Tmax (Miglustat toxicokinetics; [4]): 2.06 h
Vd/F (Miglustat toxicokinetics; [4]): 20.5 L
half-life (Miglustat toxicokinetics; po, 25 mg/kg, Day 1, 50 mg/kg ATB200 + 25 mg/kg miglustat, read-out: t1/2 (converted)): 7.44 h
AUC(0-t) (Miglustat toxicokinetics; [5]): 49.1 µg·h/mL
Cmax (Miglustat toxicokinetics; [5]): 7510 ng/mL
Tmax (Miglustat toxicokinetics; [5]): 2.88 h
Vd/F (Miglustat toxicokinetics; [5]): 23.3 L
half-life (Miglustat toxicokinetics; po, 25 mg/kg, Day 85, 50 mg/kg ATB200 + 25 mg/kg miglustat, read-out: t1/2 (converted)): 8.23 h
AUC(0-t) (Miglustat toxicokinetics; [6]): 182 µg·h/mL
Cmax (Miglustat toxicokinetics; [6]): 20400 ng/mL
Tmax (Miglustat toxicokinetics; [6]): 2.69 h
Vd/F (Miglustat toxicokinetics; [6]): 32.3 L
half-life (Miglustat toxicokinetics; po, 175 mg/kg, Day 1, 100 mg/kg ATB200 + 175 mg/kg miglustat, read-out: t1/2 (converted)): 6.85 h
AUC(0-t) (Miglustat toxicokinetics; [7]): 173 µg·h/mL
Cmax (Miglustat toxicokinetics; [7]): 16400 ng/mL
Vd/F (Miglustat toxicokinetics; [7]): 35.9 L
half-life (Miglustat toxicokinetics; po, 175 mg/kg, Day 1, 175 mg/kg miglustat monotherapy, read-out: t1/2 (converted)): 6.86 h
Tmax (Miglustat toxicokinetics; [8]): 3.56 h
Vd/F (Miglustat toxicokinetics; [8]): 39.1 L
half-life (Miglustat toxicokinetics; po, 175 mg/kg, Day 85, 100 mg/kg ATB200 + 175 mg/kg miglustat, read-out: t1/2 (converted)): 7.86 h
Tmax (Miglustat toxicokinetics; [9]): 4.13 h
Vd/F (Miglustat toxicokinetics; [9]): 33.8 L
half-life (Miglustat toxicokinetics; po, 175 mg/kg, Day 85, 175 mg/kg miglustat monotherapy, read-out: t1/2 (converted)): 6.66 h
IC50, inhibition of acid α-glucosidase activity (acid α-glucosidase; pH of plasma (pH 7.0)): 0.17 µg/mL
IC50 (acid α-glucosidase; pH of the lysosomal compartment (pH 5.2)): 1720 nM

From patent US20250381254A1, “Augmented Acid Alpha-Glucosidase For The Treatment Of Pompe Disease” (Amicus Therapeutics, Inc., priority 2015, published 2025)
